Experiments:
WEHI-231 JM cells [1] = assay: Viability by PI staining and FACS, WEHI-231 JM; type: cell-based, murine; conditions: Mus musculus, WEHI231, 24 hours
Protocol: (§1) FIG. 11B. WEHI-231 JM and OE cells are equally sensitive to inhibition of sphingosine kinase and exogenous ceramide. Cells were treated with increasing concentrations of C2-ceramide or DL-threo-dihydrosphingosine--apotent inhibitor of sphingosine kinase. Viability was assayed using PI staining and FACS analysis 24 hours after treatment.
(§2) For viability staining, 2.5-3.5×10^5 cells were treated with varying concentrations of C2-ceramide, irradiation, or both.
(§3) In order to address the question of whether the resistance of the OE subline was due, in part, to alterations in ceramide metabolites or targets, three studies were performed. […] Both cell lines were equally susceptible to the effects of sphingosine kinase inhibition and the resulting […] in ceramide. […] Thus the radioresistance can be attributed to the lack of sphingomyelinase activation and the subsequent decreased ceramide production following irradiation.

WEHI-231 OE cells [2] = assay: Viability by PI staining and FACS, WEHI-231 OE; type: cell-based, murine; conditions: Mus musculus, WEHI231, 24 hours
Protocol: as §1, §2, §3

WEHI-231 OE cells [3] = assay: Resistance of selected WEHI-231 OE variants to n-oleoylethanolamine; type: cell-based, murine; conditions: 75 μM n-oleoylethanolamine
Protocol: WEHI-231 JM cells (1×10^7) were treated with two successive treatments of 100 μM and 125 μM N-oleoylethanolamine (Matreya), a potent inhibitor of ceramidase (Coroneos et al., 1995; Ambrosini et al., 1994). Cells were grown in media containing n-oleoylethanolamine for 96 hours. Serial dilutions isolated individual resistant cells and were expanded after each selection. Every two weeks cells were re-selected with 125 μM n-oleoethanolamine.

WEHI-231 JM cells [4] = assay: Intracellular ceramide accumulation in WEHI-231 JM cells; type: cell-based, murine; conditions: within 24 hours
Protocol: Quantitation of ceramide by diacylglycerol kinase was similar to that described by Dressler and Kolesnick (1990). After irradiation, lipids were extracted and resuspended by bath sonication in 20 μl of 7.5% n-octyl-β-D-glucopyranoside, 5 mM cardiolipin, 1 mM DETAPAC. Seventy μl of a reaction mix was added to give a final concentration of 0.05M imidazole/HCl pH 6.6, 0.05M NaCl, 12.5 mM MgCl2, 1 mM EGTA and DAG kinase at a concentration of 0.7 U/ml. The reaction was started by the addition of 10 μl of [γ-^32 P]ATP (1.0 μCi/tube) in 5 mM ATP and incubated at room temperature for 30 min and stopped by the extraction of lipids with 450 μl of CHCl3 :CH3 OH (1:2) and 20 μl of 1% HClO4. The monophase was mixed and after 10 min., 150 μl CHCl3 and 150 μl of 1% HClO4 were added and the tubes vortexed and centrifuged at 5000 g for 5 min. The lower organic phase was washed twice with 1% HClO4 and then dried in a Speed Vac Apparatus. The phosphorylation products, ceramide-1-phosphate and phosphatidic acid (fom DAG) were resolved on a 10 cm×10 cm LH P-K TLC plate (Whatman). Data was calculated as pmoles of ceramide/10^6 cells by scintillation counting. In Example 6, data (mean +/- SD) represent at least 4 independent studies in which *p<002 compared with unirradiated controls. […]

HL-60 cells = conditions: literature reports; cited from earlier work
WEHI-231 cells [5] = assay: Sphingomyelin mass by lipid extraction / TLC; type: cell-based, murine; conditions: 250 nM calphostin C, 2 hours
Protocol: (§4) FIG. 7A. Inhibition of PKC causes an increase in ceramide production through the activation of a neutral sphingomyelinase and decreases in sphingomyelin levels. Ceramide production was quantitated using the DAG kinase assay for WEHI-231 JM cells and total lipid extraction was used to assay sphingomyelin mass. Following addition of 10 μM chelerythrine, cells were lysed at the appropriate time points as described herein. Each data point represents the average percentage change in ceramide or sphingomyelin generation from baseline derived from at least 8 independent studies for all time points with the exception of those marked with * (n=4). Standard deviations depicted by error bars.
(§5) FIG. 7B. […] Ceramide production and sphingomyelin mass was quantitated identical to that for chelerythrine. Cells were lysed 2 hours following the addition of 250 nM calphostin C. […]
Cells were prelabeled with [^3 H] palmitate (10 μCi/ml) for 24 hours to isotopic equilibrium in 15 ml glass tubes to minimize changes in cellular ceramide and sphingomyelin due to handling and changing of media (Borchardt et al., 1994). […] Autoradiographs were quantitated using an Epson 1200 c 30 bit scanner and NIH Image software (public domain program developed at the NIH and available from the Internet via FTP from zippy.nimh.nih.gov). […]

WEHI-231 cells [6] = assay: Apoptosis / cell death of WEHI-231 (propidium iodide FACS, gel electrophoresis, DAPI); type: cell-based, murine; conditions: chelerythrine 10 μM or calphostin C 250 nM
Protocol: Cells undergoing apoptosis also shrink in size.
Cells, 5×10^5, were centrifuged at 1000 rpm and resuspended in approximately 100 μl cell culture media. The cell suspension was then mixed with 100 μl of DAPI (4',6-iamidino-2-phenylindole, Sigma D9542, 1 μg/ml in PBT (PBS+1% Triton X-100)). One drop of this mixture was placed on a microslide with a coverslip. The cells were viewed by fluorescence microscopy using an Olympus BX-40 microscope with a 100 Watt Mercury lamp, a 16 or 40 X Fluorite objective, N.A. 0.75, (Leco #1-UB527) and a UV filter cube (ex 330-385 nm, em 420 nm, wide band pass, Leco #U-M536). Images were photographed using an Optronics cooled low-light video camera (Leco #DEI-470TB) to which was attached a 2X coupler (Leco #HR200-CMT). The image was saved to a digital file at 72 dpi.
DNA degradation was assessed as previously described (Gottschalk et al., 1993; 1994). Briefly, following treatment in 100 mm plates or 24 well plates, cells were collected and lysed in 0.5 ml lysis buffer (0.6% SDS+10 mM EDTA, pH 7.0). NaCl was added to a final concentration of 1M, mixed by inversion, incubated for 12 hours at 4° C. and then spun at 14,000 g for 30 minutes. Samples were treated with chloroform (1:1) and precipitated in ethanol prior to electrophoresis in a 3% agarose gel and visualized with ethidium bromide.

WEHI-231 cells [7] = assay: Ceramide production by DAG kinase assay; type: cell-based, murine; conditions: 250 nM calphostin C, 2 hours
Protocol: as §4, §5
Quantitation of ceramide by diacylglycerol kinase was similar to that described by Dressler and Kolesnick (1990). […] Data was calculated as pmoles of ceramide/10^6 cells by scintillation counting. […]
In order to test whether PKC inhibition alters ceramide production, the DAG kinase assay was used to quantify intracellular ceramide following chelerythrine and calphostin C treatment (Dressler and Kolesnick, 1990; Preiss et al., 1986). […]

WEHI-231 cells [8] = conditions: Chmura et al., 1996a; cited from earlier work
cyclic-AMP kinase (PKA) = conditions: cited from earlier work
protein kinase C (PKC) = conditions: cited from earlier work

Work on `CCCCCCCCCCCCCCC[C@H](O)[C@@H](N)CO` (relative stereo) [DL-threo-dihydrosphingosine] yielded an IC50 (WEHI-231 JM cells [1]) of 3 µM and an IC50 (WEHI-231 OE cells [2]) of 3 µM.
For `CCCCCCCC/C=C\CCCCCCCC(=O)NCCO` [N-oleoylethanolamine], the “resistance to apoptosis vs parental line” value (WEHI-231 OE cells [3]) was 3 fold and the “intracellular accumulation of ceramide” value (WEHI-231 JM cells [4]) was “rose within 24 hours in a dose dependent manner”.
In the case of `CN[C@@H]1C[C@H]2O[C@@](C)([C@@H]1OC)n1c3ccccc3c3c4c(c5c6ccccc6n2c5c31)C(=O)NC4` [staurosporine], the “apoptosis in HL-60 cells” value (HL-60 cells) is given as “both to antagonize (Cotter et al., 1992) and to initiate apoptosis in HL-60 cells”.
In the case of Calphostin C, the “sphingomyelin levels” value (WEHI-231 cells [5]) is reported as “decreased sphingomyelin levels”, the cell death (WEHI-231 cells [6]; 24 hours) is reported as “greater than 90%” and the “DNA laddering and nuclear condensation” value (WEHI-231 cells [6]) is reported as “DNA laddering and nuclear condensation”. The “ceramide production” value (WEHI-231 cells [7]) was “induced cerarnide production”, the “interaction with exogenous ceramide analogs in inducing apoptosis” value (WEHI-231 cells [8]) was “act in synergy with exogenous ceramide analogs to induce apoptosis” and the “inhibition of PKA” value (cyclic-AMP kinase (PKA); at concentrations used for the inventors' studies) was “do not appear to inhibit other kinases”. The IC50 (cyclic-AMP kinase (PKA)) was 50 µM and the “specificity at blocking PKC vs staurosporin and H7” value (protein kinase C (PKC)) was “at least 30 fold”.
